Data taken from publication PMC11945486, “TAS1R2/TAS1R3 Single-Nucleotide Polymorphisms Affect Sweet Taste Receptor Activation by Sweeteners: The SWEET Project” (Nutrients, 2025).
Like-named read-outs stand apart in the source and are kept apart here. No end group written: not given here.

T1: human TAS1R2-WT/TAS1R3-G832R (Homo sapiens, UniProt Q7RTX0+Q8TE23, G832R)
T1 construct: expressed in transfected cells; host or cells: HEK293T stably expressing Gα16gust44
T1 sequence (Q8TE23 20-839): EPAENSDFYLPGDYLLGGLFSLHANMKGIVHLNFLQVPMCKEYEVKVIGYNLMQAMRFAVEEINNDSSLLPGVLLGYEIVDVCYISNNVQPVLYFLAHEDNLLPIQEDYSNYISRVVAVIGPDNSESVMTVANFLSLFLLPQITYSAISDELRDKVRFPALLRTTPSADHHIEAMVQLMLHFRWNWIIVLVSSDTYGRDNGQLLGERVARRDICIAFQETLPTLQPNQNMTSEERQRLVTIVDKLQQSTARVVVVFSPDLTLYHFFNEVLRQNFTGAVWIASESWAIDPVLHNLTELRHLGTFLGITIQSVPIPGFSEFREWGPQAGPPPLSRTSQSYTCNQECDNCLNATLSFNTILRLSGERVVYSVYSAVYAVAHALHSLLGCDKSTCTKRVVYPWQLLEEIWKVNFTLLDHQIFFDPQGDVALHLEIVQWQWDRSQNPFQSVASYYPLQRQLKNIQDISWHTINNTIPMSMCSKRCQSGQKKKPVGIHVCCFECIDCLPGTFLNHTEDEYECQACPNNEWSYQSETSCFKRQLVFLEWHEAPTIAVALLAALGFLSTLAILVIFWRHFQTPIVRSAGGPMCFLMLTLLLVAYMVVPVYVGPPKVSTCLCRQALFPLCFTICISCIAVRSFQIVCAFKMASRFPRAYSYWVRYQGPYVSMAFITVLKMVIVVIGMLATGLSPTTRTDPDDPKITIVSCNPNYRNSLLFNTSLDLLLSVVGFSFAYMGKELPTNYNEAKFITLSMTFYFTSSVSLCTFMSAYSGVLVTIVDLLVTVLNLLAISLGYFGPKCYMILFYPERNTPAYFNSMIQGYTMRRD
T1 sequence (Q7RTX0 21-852 G832R): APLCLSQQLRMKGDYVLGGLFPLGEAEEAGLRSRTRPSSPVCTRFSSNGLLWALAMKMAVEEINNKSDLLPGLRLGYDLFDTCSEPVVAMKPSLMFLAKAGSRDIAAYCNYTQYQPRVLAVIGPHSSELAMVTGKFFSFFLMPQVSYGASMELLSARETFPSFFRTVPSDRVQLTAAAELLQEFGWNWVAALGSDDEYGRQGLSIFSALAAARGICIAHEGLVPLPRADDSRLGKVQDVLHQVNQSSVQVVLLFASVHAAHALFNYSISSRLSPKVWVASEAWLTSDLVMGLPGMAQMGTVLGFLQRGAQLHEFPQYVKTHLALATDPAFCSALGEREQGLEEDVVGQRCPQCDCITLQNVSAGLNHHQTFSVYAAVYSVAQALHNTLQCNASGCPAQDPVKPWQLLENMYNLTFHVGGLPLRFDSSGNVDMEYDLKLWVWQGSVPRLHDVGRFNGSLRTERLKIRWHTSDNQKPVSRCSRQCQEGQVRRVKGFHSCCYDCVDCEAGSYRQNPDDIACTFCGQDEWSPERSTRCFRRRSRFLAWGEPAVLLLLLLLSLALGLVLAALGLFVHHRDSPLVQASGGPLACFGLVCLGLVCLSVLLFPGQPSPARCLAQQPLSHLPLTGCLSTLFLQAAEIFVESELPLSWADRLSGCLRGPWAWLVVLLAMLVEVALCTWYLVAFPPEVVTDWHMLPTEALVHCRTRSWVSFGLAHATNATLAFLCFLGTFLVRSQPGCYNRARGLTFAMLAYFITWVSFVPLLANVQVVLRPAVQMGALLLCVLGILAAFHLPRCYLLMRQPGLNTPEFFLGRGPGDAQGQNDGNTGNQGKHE


Target: T1, human TAS1R2-WT/TAS1R3-G832R
Assay: Calcium mobilisation assay, TAS1R2-WT with TAS1R3 variant G832R
Type: cell-based
Details: for Max ΔF/F0: maximal signal amplitude
Text: The coding sequences for TAS1R2 and TAS1R3 were commercially synthesised, and the human codon was optimised for expression in human cells. The coding sequences of human TAS1R2 and TAS1R3 were subcloned and inserted into the mammalian expression vectors pcDNA6/myc-HisA and pcDNA4/myc-HisA (Invitrogen; Thermo Fisher Scientific; Illkirch, France) between the EcoRI and NotI restriction sites, generating the plasmids pcDNA6-TAS1R2 and pcDNA4-TAS1R3, respectively. To increase protein expression in mammalian cells, an upstream start codon was used, which was a sequence called MAX, corresponding to the QBI SP163 element also described in pcDNA4-HisMax (Invitrogen; Thermo Fisher Scientific; Illkirch, France). To measure the expression level of the receptor by immunohistochemistry, we used the FLAG sequence ([…]) in the C-terminal position, which encodes the FLAG tag epitope. SNP variants of TAS1R2 and TAS1R3 were constructed based on […], respectively, using site-directed mutagenesis (Genewiz; Leipzig, Germany).
The HEK293T cells were kindly provided by Jay P. Slack (Givaudan Flavors Corporation; Cincinnati, OH, USA). HEK293T cells stably transfected with Gα16gust44 [43, 67] were seeded in poly-D-lysine-coated clear-bottom black 96-well plates (0.35 × 10^5 cells/well) in high-glucose DMEM supplemented with 2 mM GlutaMAX, 10% dialysed foetal bovine serum with penicillin/streptomycin and G418 (400 μg/mL) at 37 °C and 6.3% CO2 in a humidified atmosphere as previously reported. […] As a negative control, HEK293T cells were mock-transfected with the empty expression vector. After a further 24 h of incubation, the HEK293T cells were washed with C1 buffer (130 mM NaCl, 5 mM KCl, 10 mM HEPES pH 7.4 and 2 mM CaCl2). The 96-well plates containing the cells were then stimulated with sweet-tasting compounds. […] Different concentration ranges were tested depending on the sweet compound injected. The Ca^2+ changes were expressed as fractional changes in fluorescent light intensity: ΔF/F = (F − F0)/F0, where F was the fluorescent light intensity at each point, and F0 was the value of emitted fluorescent light prior to stimulus application. To calculate dose–response relationships, the changes in fluorescence upon stimulus application were averaged, mock-subtracted and baseline-corrected. The dose–response data obtained were adjusted using a 4-parameter logistic equation. The half-maximal effective concentrations (EC50 values) and maximal signal amplitudes were calculated using SigmaPlot software (version 15.0) (Systat Software; San Jose, CA, USA).
For in vitro calcium mobilisation assay performed on hTAS1R2-SNPs, hTAS1R3-SNPs and mTAS1R3-I60T, 6 to 7 concentrations were tested for each sweet compound, plus buffer alone. All concentration–receptor combinations were measured in duplicate, and each experiment was repeated at least 4 times (8 wells/concentration). Results were expressed for each concentration as ΔF/F mean ± SEM and represented as dose–response curves.

Row | R1 = Variant EC50/WT EC50 | Max ΔF/F0 | EC50 (read-out: EC50) | EC50 (brazzein) | Molecule
1 | 0.8 | 0.55 ± 0.03 | 468 ± 64 µM | – | CC1=CC(=O)NS(=O)(=O)O1 [Acesulfame K, acesulfame K]
2 | 0.7 | 0.88 ± 0.02 | 0.8 ± 0.07 µM | – | COC(=O)[C@H](Cc1ccccc1)NC(=O)[C@H](CC(=O)O)NCCC(C)(C)C [Neotame]
3 | 0.5 | 1.18 ± 0.14 | 7.2 ± 3 µM | – | C=C(C)[C@@H]1CC=C(/C=N/O)CC1 [Perillartine, perillartine]
4 | 0.6 | 1.38 ± 0.07 | 22.7 ± 3.2 µM | – | C=C1C[C@@]23CC[C@H]4[C@@](C)(CCC[C@@]4(C)C(=O)O[C@@H]4O[C@H](CO)[C@@H](O)[C@H](O[C@@H]5O[C@H](CO)[C@@H](O)[C@H](O)[C@H]5O)[C@H]4O[C@@H]4O[C@H](CO)[C@@H](O)[C@H](O)[C@H]4O)[C@@H]2CC[C@]1(O[C@@H]1O[C@H](CO)[C@@H](O)[C@H](O[C@@H]2O[C@H](CO)[C@@H](O)[C@H](O)[C@H]2O)[C@H]1O[C@@H]1O[C@H](CO)[C@@H](O)[C@H](O)[C@H]1O)C3 [Rebaudioside M, rebaudioside M]
5 | 0.7 | 0.91 ± 0.02 | 81 ± 4 µM | – | OC[C@H]1O[C@H](O[C@]2(CCl)O[C@H](CCl)[C@@H](O)[C@@H]2O)[C@H](O)[C@@H](O)[C@H]1Cl [Sucralose]
6 | 0.5 | 0.76 ± 0.03 | – | – | thaumatin
7 | – | – | 5.7 ± 0.7 µM | – | thaumatin (protein, Eight disulfides, sweet-tasting plant protein, E957) ATFEIVNRCSYTVWAAASKGDAALDAGGRQLNSGESWTINVEPGTKGGKIWARTDCYFDDSGSGICKTGDCGGLLRCKRFGRPPTTLAEFSLNQYGKDYIDISNIKGFNVPMDFSPTTRGCRGVRCAADIVGQCPAKLKAPGGGCNDACTVFQTSEYCCTTGKCGPTEYSRFFKRLCPDAFSYVLDKPTTVTCPGSSNYRVTFCPTA

The remaining lines, values behind:

Row | Molecule | R1 = Variant EC50/WT EC50 | Max ΔF/F0 | EC50 (read-out: EC50) | EC50 (brazzein)
8 | O=S(=O)(O)NC1CCCCC1 [Cyclamate, cyclamate] | – | – | 998 ± 46 µM | –
9 | C[C@H](CC[C@@H](O[C@@H]1O[C@H](CO[C@@H]2O[C@H](CO)[C@@H](O)[C@H](O)[C@H]2O)[C@@H](O)[C@H](O)[C@H]1O[C@@H]1O[C@H](CO)[C@@H](O)[C@H](O)[C@H]1O)C(C)(C)O)[C@H]1CC[C@@]2(C)[C@@H]3CC=C4[C@@H](CC[C@H](O[C@@H]5O[C@H](CO[C@@H]6O[C@H](CO)[C@@H](O)[C@H](O)[C@H]6O)[C@@H](O)[C@H](O)[C@H]5O)C4(C)C)[C@]3(C)[C@H](O)C[C@]12C [Mogroside V, mogroside V] | 0.6 | 1.23 ± 0.04 | 19.1 ± 1.7 µM | –
10 | COc1ccc(CCC(=O)c2c(O)cc(O[C@@H]3O[C@H](CO)[C@@H](O)[C@H](O)[C@H]3O[C@@H]3O[C@@H](C)[C@H](O)[C@@H](O)[C@H]3O)cc2O)cc1O [NHDC, neohesperidin dihydrochalcone] | 0.6 | 1.03 ± 0.01 | 28.1 ± 12.3 µM | –
11 | brazzein (QDKCKKVYENYPVSKCQLANQCNYDCKLDKHARSGECFYDEKRNLQCICDYCEY; ends and bridges not checked; cysteine pairing not given here; UniProt P56552 1-54, looked up) [sweet-tasting protein obtained by recombinant production using the yeast Pichia pastoris] | 0.5 | 0.97 ± 0.07 | – | 52.8 ± 15.7 µg/mL
